Laboratory results reported in US20260102407A1, “TREATMENT METHODS” (priority 2020, published 2026).

What was measured:
[1] = test system: THP-1 transendothelial migration; test: Monocyte-transendothelial migration assay toward MCP-1; assay type: cell-based, human; details: HMEC; 20 ng/ml IL-1β; 24 h
Procedure: Monocyte-transendothelial migration assay. Millicell 8 μm polycarbonated culture plate inserts (Millipore) were coated with 0.1% porcine gelatin type A (Sigma) and then placed into 24-well plates. HMEC (5×10^4 cells/well) were seeded onto the insert and allowed to adhere overnight. Cells were then serum deprived for 24 h and treated with various compound treatments for 1 h. IL-1β (20 ng/ml) was added to stimulate the cells for 4 h and 500 μl of serum-free medium was added to the bottom of the 24-well plate along with the compound. THP-1 (5×10^5 cells in 100 μl) were added into the insert and 100 ng/ml MCP-1 (Sigma) was added to the lower well. After 24 h, the number of cells that had migrated though the endothelial layer was assessed by counting 100 μl of the suspension in the lower chamber using a Coulter cell counter (Beckman Coulter).

[2] = test system: VCAM-1; test: Immunohistochemical staining of rat retina, VCAM-1; assay type: in vivo; details: lasered rat retinas
Description: Rat choroidal laser injury model. Male Brown Norway pigmented rats (8-14 week-old) were anesthetized by an intramuscular injection of Rompun® (xylazine)/Imalgene® (ketamine). Pupils were dilated by instillation of one drop of 0.5% tropicamide before laser burn. Six burns were created in both eyes on Day 0 by applying 170 mW of 532 nm laser light (Viridis laser, Quantel, France) on 75 μm spots around the optic nerve, between the main retinal vessel branches, for 0.1s, through the slit lamp and contact lens. Production of a bubble at the time of laser application confirmed the rupture of Bruch's membrane. […] After anaesthesia, 10% sodium fluorescein (250 μl/100 g body weight) was injected subcutaneously, and ocular fluorescence was recorded 10 min after dye injection. Fluorescein leakage was evaluated on Days 14 and 21 in the angiograms by two examiners masked to the study groups and graded for fluorescein intensity as follows: score 0: no leakage; 1: slightly stained; 2: moderately stained; 3: strongly stained.
Immunohistochemical staining of rat retina. […] IOD of positive staining (red chromogen) was assessed for CD31, VEGF-A165, pERK, FosB and VCAM-1 using Image-Pro Plus software (Cybernetics, Bethesda, MD). IOD in IPL and INL was quantified for CD31; OPL to OS for VEGF-A165; INL to ONL for pERK; GCL to OS for FosB; OLM for VCAM-1, using Image-Pro Plus. […]

[3] = test system: p-p38; test: Western blot, IL-1β-inducible p-p38 in HMEC-1; assay type: cell-based, human; details: 1-30 μM
Procedure: Western blot analysis with extracts of cells treated with IL-13. HMEC-1 (80-90% confluency) were arrested in serum-free MCDB131 medium (Invitrogen, MD) without any growth factor for 48 h. Cells were treated with 30 μM compound in serum-free medium for 4 h, and incubated with 20 ng/ml IL-1β (Sigma, cat. SRE3083) in serum-free medium with the same concentration of compound for up to 4 h, unless otherwise indicated. Total protein was harvested as previously described using RIPA buffer with protease inhibitors. Proteins were resolved on 4-20% (w/v) SDS-polyacrylamide gradient gels and transferred to Immobilon-P PVDF membranes. […] Chemiluminescence was detected using the Western Lightning Chemiluminescence system and ImageQuant™ LAS 4000 biomolecular imager. Band intensity in images generated with the LAS 4000 using the same settings were quantified by NIH ImageJ.

CCOC(=O)Nc1ccc2c(c1)C(=O)N(CC)c1ccccc1O2 [BT2, (10-ethyl-11-oxo-10,11-dihydro-dibenzo[b,f][1,4]oxazepin-2-yl)-carbamic acid ethyl ester]
transendothelial migration of THP-1 monocytes toward MCP-1 [1]: inhibits the transendothelial migration
inducible VCAM-1 expression in the OLM [2]: reduced inducible VCAM-1 expression
IL-1β-inducible p-p38 [3]: no effect
